Laboratory results reported in PubChem BioAssay AID330 (DTP/NCI, 2004).
Several values for one entry are separate records, joined by “and”; a condition that tells them apart may be missing. Equal entries are not always repeated. Toxic doses and inconclusive results are not listed.

Tested on: P388 leukemia ip, CD2F1 mice, survival T/C
Assay: NCI In Vivo Anticancer Drug Screen. Data for tumor model P388 Leukemia (intraperitoneal) in CD2F1 (CDF1) mice
Conditions: endpoint: median survival time, higher = longer survival
How it was run: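 Mice carrying the transplanted tumor received test compound or vehicle. Survival was recorded in each group, and the value is the treated-group measurement divided by that of the vehicle-treated control group.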

[1] = dose: 50.0 mg/kg/injection, schedule: Q01DX005 (ip), vehicle: Klucel (hydroxypropylcellulose) (HPC)
[2] = dose: 100.0 mg/kg/injection, schedule: Q01DX005 (ip), vehicle: Klucel (hydroxypropylcellulose) (HPC)
[3] = dose: 200.0 mg/kg/injection, schedule: Q01DX005 (ip), vehicle: Klucel (hydroxypropylcellulose) (HPC)
[4] = dose: 60.0 mg/kg/injection, schedule: Q01DX005 (ip), vehicle: saline with Tween-80
[5] = dose: 120.0 mg/kg/injection, schedule: Q01DX005 (ip), vehicle: saline with Tween-80
[6] = dose: 240.0 mg/kg/injection, schedule: Q01DX005 (ip), vehicle: saline with Tween-80

In the case of `C[CH2][Sn]([CH2]C)([O]S(C)(=O)=O)[O]S(C)(=O)=O`, the T/C (dose: 1.56 mg/kg/injection, schedule: Q04DX003 (ip), vehicle: saline) is reported as 114 % of control, the T/C (dose: 6.25 mg/kg/injection, schedule: Q04DX003 (ip), vehicle: saline) is reported as 117 % of control and 118 % of control and the T/C (dose: 12.5 mg/kg/injection, schedule: Q04DX003 (ip), vehicle: saline) is reported as 164 % of control.
For `COC(=O)/C=C\C=[N+](/[O-])C(C)(C)C`, the T/C (dose: 12.5 mg/kg/injection, schedule: Q01DX001 (ip), vehicle: Klucel (hydroxypropylcellulose) (HPC)) was 114 % of control, the T/C (dose: 25.0 mg/kg/injection, schedule: Q01DX001 (ip), vehicle: Klucel (hydroxypropylcellulose) (HPC)) was 113 % of control and the T/C (dose: 50.0 mg/kg/injection, schedule: Q01DX001 (ip), vehicle: Klucel (hydroxypropylcellulose) (HPC)) was 113 % of control.
In the case of `[Cl][Ge]([c]1ccccc1)[c]1ccccc1.c1cc[c]([GeH][c]2ccccc2)cc1`, the T/C [1] is reported as 93 % of control, the T/C [2] is reported as 100 % of control and the T/C [3] is reported as 103 % of control.
With `CC(C)(C)c1cc(C(C)(C)C)c(=O)oc(=O)c1` the T/C [1] was 98 % of control and the T/C [2] was 98 % of control.
`COc1cccc2c1C(=N)c1c(O)c3c(c(O)c1C2=O)C[C@@](O)(C(O)CO)C[C@@H]3OC1CC(N2CCOCC2)C(O)C(C)O1` (stereo partly drawn) was tested, and the T/C (dose: 3.12 mg/kg/injection, schedule: Q04DX003 (ip), vehicle: water) was 112 % of control and 115 % of control, the T/C (dose: 6.25 mg/kg/injection, schedule: Q04DX003 (ip), vehicle: water) was 118 % of control and the T/C (dose: 12.5 mg/kg/injection, schedule: Q04DX003 (ip), vehicle: water) was 108 % of control and 120 % of control. For the same molecule, the T/C (dose: 18.7 mg/kg/injection, schedule: Q04DX003 (ip), vehicle: water) was 105 % of control, the T/C (dose: 50.0 mg/kg/injection, schedule: Q04DX003 (ip), vehicle: water) was 115 % of control and 161 % of control and 221 % of control and the T/C (dose: 75.0 mg/kg/injection, schedule: Q04DX003 (ip), vehicle: water) was 118 % of control.
In the case of `Cc1nn(C(=S)S)c(C)c1N=Nc1ccc(F)cc1`, the T/C (dose: 50.0 mg/kg/injection, schedule: Q01DX005 (ip), vehicle: saline with Tween-80) is reported as 103 % of control, the T/C (dose: 100.0 mg/kg/injection, schedule: Q01DX005 (ip), vehicle: saline with Tween-80) is reported as 110 % of control and the T/C (dose: 200.0 mg/kg/injection, schedule: Q01DX005 (ip), vehicle: saline with Tween-80) is reported as 101 % of control.
In the case of `CCCOc1ccc(C#N)cc1`, the T/C (dose: 50.0 mg/kg/injection, schedule: Q01DX009 (ip), vehicle: Klucel (hydroxypropylcellulose) (HPC)) is reported as 102 % of control, the T/C (dose: 100.0 mg/kg/injection, schedule: Q01DX009 (ip), vehicle: Klucel (hydroxypropylcellulose) (HPC)) is reported as 108 % of control and the T/C (dose: 200.0 mg/kg/injection, schedule: Q01DX009 (ip), vehicle: Klucel (hydroxypropylcellulose) (HPC)) is reported as 99 % of control.
With `CCc1c2c(cc3c1[nH]c1ccccc13)C(=O)OC2=O` the T/C [1] was 95 % of control, the T/C [2] was 86 % of control and the T/C [3] was 98 % of control.
With `COc1ccc(Cc2coc3cc(OC)cc(OC)c3c2=O)cc1` the T/C [4] was 98 % of control, the T/C [5] was 97 % of control and the T/C [6] was 94 % of control.
With `c1ccc2cc(OCC(COc3ccc4ccccc4c3)(COc3ccc4ccccc4c3)COc3ccc4ccccc4c3)ccc2c1` the T/C (dose: 7.5 mg/kg/injection, schedule: Q01DX009 (ip), vehicle: saline with Tween-80) was 89 % of control.
With `[Cl][Sn]([Cl])([c]1ccccc1)[c]1ccccc1.c1ccc2nc(-c3ccc4ccccc4n3)ccc2c1` the T/C (dose: 7.5 mg/kg/injection, schedule: Q01DX005 (ip), vehicle: Klucel (hydroxypropylcellulose) (HPC)) was 100 % of control and 106 % of control, the T/C (dose: 15.0 mg/kg/injection, schedule: Q01DX005 (ip), vehicle: Klucel (hydroxypropylcellulose) (HPC)) was 100 % of control and 113 % of control and the T/C (dose: 30.0 mg/kg/injection, schedule: Q01DX005 (ip), vehicle: Klucel (hydroxypropylcellulose) (HPC)) was 104 % of control and 117 % of control.
For `CC(C)N(Cc1ccccc1)CC(O)c1ccc(Cl)cc1` (stereo not drawn), the T/C (dose: 12.5 mg/kg/injection, schedule: Q01DX009 (ip), vehicle: saline with Tween-80) was 104 % of control, the T/C (dose: 25.0 mg/kg/injection, schedule: Q01DX009 (ip), vehicle: saline with Tween-80) was 108 % of control and the T/C (dose: 50.0 mg/kg/injection, schedule: Q01DX009 (ip), vehicle: saline with Tween-80) was 100 % of control and 108 % of control. For the same molecule, the T/C (dose: 100.0 mg/kg/injection, schedule: Q01DX009 (ip), vehicle: saline with Tween-80) was 95 % of control.
In the case of `Cc1nnc(N/N=C/c2ccccc2)n1/N=C\c1ccccc1`, the T/C (dose: 100.0 mg/kg/injection, schedule: Q04DX003 (ip), vehicle: Klucel (hydroxypropylcellulose) (HPC)) is reported as 101 % of control, the T/C (dose: 200.0 mg/kg/injection, schedule: Q04DX003 (ip), vehicle: Klucel (hydroxypropylcellulose) (HPC)) is reported as 100 % of control and the T/C (dose: 400.0 mg/kg/injection, schedule: Q04DX003 (ip), vehicle: Klucel (hydroxypropylcellulose) (HPC)) is reported as 105 % of control.
In the case of `Cc1ncc(C(O)c2ccc(N(C)C)cc2)n1Cc1ccccc1` (stereo not drawn), the T/C [4] is reported as 98 % of control, the T/C [5] is reported as 95 % of control and the T/C [6] is reported as 95 % of control.
